These results are taken from PMC11985001, “Melatonin rescues cell respiration impaired by hypoxia/reoxygenation in aortic endothelial cells and affects the mitochondrial bioenergetics targeting the F1FO-ATPase” (Redox Biology, 2025).

Assay [1] deals with T1, F1 domain of mitochondrial F1FO-ATPase (Ca2+-activated F1-ATPase) (Sus scrofa, UniProt K7GLT8+P80021).
T1 construct: gene ATP5F1B; native whole F1FO-ATPase in frozen-thawed pig heart mitochondria; not purified F1
The experiment in a line: ATP hydrolysis (Pi release) with partially purified F1 at […] melatonin; IC50 from the mitochondrial Ca2+-activated F1FO-ATPase (K'i […]). It is filed as biochemical.

The target of assay [2] is T2, F1 domain of mitochondrial F1FO-ATPase (F1-ATPase) (Sus scrofa, UniProt K7GLT8+P80021).
T2 construct: gene ATP5F1B; partially purified F1 domain from swine heart mitochondria; with other subunits of the F1 complex
T2 sequence (K7GLT8 89-570): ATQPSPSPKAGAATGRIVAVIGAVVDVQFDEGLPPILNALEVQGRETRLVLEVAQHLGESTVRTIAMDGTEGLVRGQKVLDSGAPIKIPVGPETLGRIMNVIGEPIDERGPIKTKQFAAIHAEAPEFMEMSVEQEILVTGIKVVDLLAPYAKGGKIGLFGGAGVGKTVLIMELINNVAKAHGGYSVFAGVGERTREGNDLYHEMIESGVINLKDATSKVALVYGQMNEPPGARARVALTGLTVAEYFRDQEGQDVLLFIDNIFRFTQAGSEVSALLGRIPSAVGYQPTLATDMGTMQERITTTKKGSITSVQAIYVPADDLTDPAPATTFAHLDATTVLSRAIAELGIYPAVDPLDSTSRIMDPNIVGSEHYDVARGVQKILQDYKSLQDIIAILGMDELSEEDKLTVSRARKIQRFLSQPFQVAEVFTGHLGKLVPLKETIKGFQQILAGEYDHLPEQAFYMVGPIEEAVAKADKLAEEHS
T2 sequence (P80021 44-553): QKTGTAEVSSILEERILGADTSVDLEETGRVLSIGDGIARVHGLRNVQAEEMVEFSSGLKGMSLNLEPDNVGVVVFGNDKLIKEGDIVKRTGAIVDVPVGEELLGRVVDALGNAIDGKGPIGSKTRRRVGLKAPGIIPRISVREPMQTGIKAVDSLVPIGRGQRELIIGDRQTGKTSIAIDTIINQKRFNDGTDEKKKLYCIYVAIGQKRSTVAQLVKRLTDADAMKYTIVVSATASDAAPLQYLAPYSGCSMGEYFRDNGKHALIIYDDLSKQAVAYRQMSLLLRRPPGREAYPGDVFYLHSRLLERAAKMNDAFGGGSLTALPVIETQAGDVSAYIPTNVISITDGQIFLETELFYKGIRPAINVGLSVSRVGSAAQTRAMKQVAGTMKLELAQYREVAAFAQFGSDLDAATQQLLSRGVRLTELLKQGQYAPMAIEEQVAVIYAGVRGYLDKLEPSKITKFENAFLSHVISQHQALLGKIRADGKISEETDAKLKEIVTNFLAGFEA
T2 sequence (A0A286ZYL7 23-168 partner): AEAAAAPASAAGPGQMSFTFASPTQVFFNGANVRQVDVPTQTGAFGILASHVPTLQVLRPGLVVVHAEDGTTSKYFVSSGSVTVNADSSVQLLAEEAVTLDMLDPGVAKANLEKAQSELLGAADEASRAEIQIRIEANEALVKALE
T2 sequence (A5GFX4 2-51 partner): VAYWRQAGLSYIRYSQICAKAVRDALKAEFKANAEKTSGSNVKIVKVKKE
As to the kind of experiment: ATP hydrolysis (Pi release) with partially purified F1, […] NBD-Cl. It is filed as biochemical.

T1 sequence (K7GLT8 89-570): as the sequence (K7GLT8 89-570) above
T1 sequence (P80021 44-553): as the sequence (P80021 44-553) above
T1 sequence (A0A286ZYL7 23-168 partner): as the sequence (A0A286ZYL7 23-168 partner) above
T1 sequence (A5GFX4 2-51 partner): as the sequence (A5GFX4 2-51 partner) above
T1 sequence (Q2EN81 24-213 partner): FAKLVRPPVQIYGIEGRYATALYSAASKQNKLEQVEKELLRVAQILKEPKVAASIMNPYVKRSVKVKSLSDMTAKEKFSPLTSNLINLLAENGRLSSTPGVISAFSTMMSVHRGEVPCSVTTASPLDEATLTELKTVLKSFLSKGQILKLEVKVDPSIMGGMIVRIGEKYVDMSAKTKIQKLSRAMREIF
T1 sequence (Q35915 whole entry partner, the tested form may be a part): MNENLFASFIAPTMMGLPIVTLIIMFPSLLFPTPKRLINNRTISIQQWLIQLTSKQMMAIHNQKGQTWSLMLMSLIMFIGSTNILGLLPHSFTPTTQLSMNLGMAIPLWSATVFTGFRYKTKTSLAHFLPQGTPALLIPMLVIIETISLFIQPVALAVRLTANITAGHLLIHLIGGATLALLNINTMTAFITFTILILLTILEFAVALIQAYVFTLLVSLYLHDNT

A word on the IC50: it is the point on the concentration scale where inhibition reaches its midpoint. The low end stands for higher potency, the high end for lower potency. In assay [1], `COc1ccc2[nH]cc(CCNC(C)=O)c2c1` [melatonin] yielded a concentration for half-maximal inhibition (IC50) of 6.63 ± 2.33 mM.

Turning to `O=[N+]([O-])c1ccc(Cl)c2nonc12` [NBD-Cl], the “ATP hydrolysis (Pi release) with partially purified F1, 75 μM NBD-Cl” value in assay [2] is “F1-ATPase activity was insensitive to oligomycin and was inhibited by NBD-Cl”.
